Data reported in patent US10710994B2, “Oxadiazole transient receptor potential channel inhibitors” (Genentech, Inc., priority 2018, dated 2020).
pIC50: −log10 of the molar value. Like-named read-outs stand apart in the source and are kept apart here.

Target: human TRPA1 channel (Homo sapiens (Human), UniProt O75762)
Test: hTRPA1 CHO Ca2+ FLIPR Tetra assay: block of cinnamaldehyde induced calcium influx
Type: cell-based
Details: CHO cells expressing TRPA1, Hill coefficient fixed to 1.5
Summary of the method: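 TRPA1-expressing CHO cells loaded with calcium indicator dye (1 h 37° C, then 15 min room temperature) in HBSS/20 mM HEPES pH 7.4/0.02% BSA. IC50 from fits with fixed Hill coefficient.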

[1] = read-out: hTRPA1 IC50 10 min, 10 minutes incubation with compound before cinnamaldehyde (about EC80)
[2] = read-out: hTRPA1 IC50 90 min, 90 minutes incubation with compound before cinnamaldehyde (about EC80)
[3] = hTRPA1 IC50 90 min, 90 minutes incubation with compound before cinnamaldehyde (about EC80)
[4] = hTRPA1 IC50 10 min, 10 minutes incubation with compound before cinnamaldehyde (about EC80)

human TRPA1 channel, sequence (O75762 whole entry): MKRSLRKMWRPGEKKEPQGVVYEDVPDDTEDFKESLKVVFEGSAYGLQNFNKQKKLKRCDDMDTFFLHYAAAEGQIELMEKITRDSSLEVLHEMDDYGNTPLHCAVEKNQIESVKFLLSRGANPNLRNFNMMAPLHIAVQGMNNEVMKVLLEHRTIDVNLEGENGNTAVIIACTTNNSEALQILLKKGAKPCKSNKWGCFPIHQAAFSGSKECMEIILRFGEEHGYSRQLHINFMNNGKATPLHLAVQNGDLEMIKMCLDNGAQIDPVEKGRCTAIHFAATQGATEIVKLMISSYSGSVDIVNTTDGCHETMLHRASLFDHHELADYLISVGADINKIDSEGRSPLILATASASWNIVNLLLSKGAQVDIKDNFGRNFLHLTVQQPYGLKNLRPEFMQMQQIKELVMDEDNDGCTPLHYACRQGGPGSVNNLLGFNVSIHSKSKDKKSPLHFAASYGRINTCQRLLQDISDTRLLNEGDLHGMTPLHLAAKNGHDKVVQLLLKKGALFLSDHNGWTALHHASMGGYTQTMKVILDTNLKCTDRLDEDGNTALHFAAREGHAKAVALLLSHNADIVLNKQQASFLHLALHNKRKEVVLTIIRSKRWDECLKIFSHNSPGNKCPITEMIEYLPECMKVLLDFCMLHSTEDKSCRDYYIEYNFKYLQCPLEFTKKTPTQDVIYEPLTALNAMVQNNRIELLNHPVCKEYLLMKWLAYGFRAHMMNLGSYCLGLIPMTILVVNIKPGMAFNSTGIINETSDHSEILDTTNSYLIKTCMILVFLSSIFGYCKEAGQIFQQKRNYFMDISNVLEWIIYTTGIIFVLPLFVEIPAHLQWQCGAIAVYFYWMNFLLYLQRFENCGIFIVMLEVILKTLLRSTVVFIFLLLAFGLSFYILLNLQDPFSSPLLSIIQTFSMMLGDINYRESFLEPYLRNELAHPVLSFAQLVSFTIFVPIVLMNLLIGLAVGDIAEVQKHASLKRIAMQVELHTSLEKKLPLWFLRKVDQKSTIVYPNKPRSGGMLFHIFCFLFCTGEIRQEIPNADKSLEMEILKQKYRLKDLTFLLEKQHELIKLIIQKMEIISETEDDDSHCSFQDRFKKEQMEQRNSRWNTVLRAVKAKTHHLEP

Structure (SMILES)	pIC50 [1]	pIC50 [2]	pIC50 [3]	pIC50 [4]
Cc1ccc([C@H]2C[C@H](c3noc(Cn4cnc5ncn(C)c5c4=O)n3)CO2)cc1 [Example 27, 7-methyl-1-((3-((3R,5R)-5-(p-tolyl)tetrahydrofuran-3-yl)-1,2,4-oxadiazol-5-yl)methyl)-1,7-dihydro-6H-purin-6-one]	7.79	8.24		
Cc1nc2nc(C)n(C)c2c(=O)n1Cc1nc([C@@H]2CO[C@@H](c3ccc(Cl)cc3)C2)no1 [Example 109, 1-((3-((3R,5R)-5-(4-chlorophenyl)tetrahydro-furan-3-yl)-1,2,4-oxadiazol-5-yl)methyl)-2,7,8-trimethyl-1,7-dihydro-6H-purin-6-one]	7.07	7.21		
Cn1nnc2ncn(Cc3nc([C@@H]4CO[C@@H](c5ccc(Cl)cc5)C4)no3)c(=O)c21 [Example 16, 6-((3-((3R,5R)-5-(4-chlorophenyl)tetra-hydrofuran-3-yl)-1,2,4-oxadiazol-5-yl)methyl)-1-methyl-1,6-dihydro-7H-[1,2,3]triazolo[4,5-d]pyrimidin-7-one]	8.31	8.57		
Cn1cnc2ncn(Cc3nc([C@@H]4CO[C@@]5(Cc6ccccc65)C4)no3)c(=O)c21 [Example 43, 1-((3-((4′R,7R)-4′,5′-dihydro-3′H-spiro[bicyclo[4.2.0]octane-7,2′-furan]-1(6),2,4-trien-4′-yl)-1,2,4-oxadiazol-5-yl)methyl)-7-methyl-1,7-dihydro-6H-purin-6-one]	6.56	6.85		
Cn1cnc2ncn(Cc3nc([C@@H]4CO[C@@H](c5cc(F)c(Cl)c(F)c5)C4)no3)c(=O)c21 [Example 83, 1-((3-((3R,5R)-5-(4-chloro-3,5-difluorophenyl)tetrahydrofuran-3-yl)-1,2,4-oxadiazol-5-yl)methyl)-7-methyl-1,7-dihydro-6H-purin-6-one]			7.89	7.32
Cn1cnc2nc(N)n(Cc3nc([C@@H]4CO[C@@H](c5ccc(F)cc5)C4)no3)c(=O)c21 [Example 144, 2-amino-1-((3-((3R,5R)-5-(4-fluorophenyl)tetrahydro-furan-3-yl)-1,2,4-oxadiazol-5-yl)methyl)-7-methyl-1,7-dihydro-6H-purin-6-one]	7.24	8.18		
Cn1c(=O)oc2ncn(Cc3nc([C@@H]4CO[C@@H](c5ccc(Cl)cc5)C4)no3)c(=O)c21 (racemic) [Example 153, 1-methyl-6-[[3-[rac-(3R,5R)-5-(4-chlorophenyl)tetrahydro-furan-3-yl]-1,2,4-oxadiazol-5-yl]methyl] oxazolo[5,4-d] pyrimidine-2,7-dione]			8.74	8.20
Nc1ccc2c(=O)n(Cc3nc([C@@H]4CO[C@@H](c5ccc(F)cc5)C4)no3)cnc2n1 [Example 60, 7-amino-3-((3-((3R,5R)-5-(4-fluorophenyl)tetrahydrofuran-3-yl)-1,2,4-oxadiazol-5-yl)methyl)pyrido[2,3-d] pyrimidin-4(3H)-one]	7.81	7.92		
Cc1cnn2ncn(Cc3nc([C@@H]4CO[C@@H](c5ccc(C#N)cc5)C4)no3)c(=O)c12 [Example 122, 4-((2R,4R)-4-(5-((5-methyl-4-oxopyrazolo[5,1-f][1,2,4]triazin-3(4H)-yl)methyl)-1,2,4-oxadiazol-3-yl)tetrahydrofuran-2-yl)benzonitrile]	7.12	7.41		
Cn1cnc2c(C(N)=O)nn(Cc3nc([C@@H]4CO[C@@H](c5ccc(Cl)cc5)C4)no3)c(=O)c21 [Example 116, 6-((3-((3R,5R)-5-(4-chlorophenyl)tetrahydro-furan-3-yl)-1,2,4-oxadiazol-5-yl)methyl)-1-methyl-7-oxo-6,7-dihydro-1H-imidazo [4,5-d]pyridazine-4-carboxamide]	7.12	7.41		
Cn1ncc2nc(N)n(Cc3nc([C@@H]4CO[C@@H](c5ccc(Cl)cc5)C4)no3)c(=O)c21 [Example 150, 5-amino-6-((3-((3R,5R)-5-(4-chlorophenyl)tetrahydro-furan-3-yl)-1,2,4-oxadiazol-5-yl)methyl)-1-methyl-1,6-dihydro-7H-pyrazolo[4,3-d] pyrimidin-7-one]	8.50	8.77		
Cn1cnc2ncn(Cc3nc([C@@H]4CO[C@@H](c5ccc(C#N)cc5)C4)no3)c(=O)c21 [Example 37, 4-((2R,4R)-4-(5-((7-methyl-6-oxo-6,7-dihydro-1H-purin-1-yl)methyl)-1,2,4-oxadiazol-3-yl)tetrahydrofuran-2-yl)benzonitrile]	6.97	7.28		
Cc1c(=O)ncn2cnn(Cc3nc([C@@H]4CO[C@@H](c5ccc(Cl)cc5)C4)no3)c(=O)c12 [Example 47, 2-((3-((3R,5R)-5-(4-chlorophenyl)tetra-hydrofuran-3-yl)-1,2,4-oxadiazol-5-yl)methyl)-9-methyl-2H-pyrimido[1,6-d][1,2,4] triazine-1,8-dione]	6.48	6.62		

Second part, the molecule after the results:

pIC50 [1]	pIC50 [2]	pIC50 [3]	pIC50 [4]	Structure (SMILES)
7.69	7.82			Cc1ncn2ncn(Cc3nc([C@@H]4CO[C@@H](c5ccc(Cl)cc5)C4)no3)c(=O)c12 [Example 64, 3-((3-((3R,5R)-5-(4-chlorophenyl)tetrahydro-furan-3-yl)-1,2,4-oxadiazol-5-yl)methyl)-5-methylimidazo[1,5-f] [1,2,4]triazin-4(3H)-one]
7.97	8.92			Cc1cncc2ncn(Cc3nc([C@@H]4CO[C@@H](c5ccc(F)cc5)C4)no3)c(=O)c12 [Example 67, 3-((3-((3R,5R)-5-(4-fluorophenyl)tetrahydro-furan-3-yl)-1,2,4-oxadiazol-5-yl)methyl)-5-methylpyrido[3,4-d] pyrimidin-4(3H)-one]
7.08	7.82			Nc1nc(=O)c2cccnc2n1Cc1nc([C@@H]2CO[C@@H](c3ccc(F)cc3)C2)no1 [Example 130, 2-amino-1-((3-((3R,5R)-5-(4-fluorophenyl)tetra-hydrofuran-3-yl)-1,2,4-oxadiazol-5-yl)methyl) pyrido[2,3-d]pyrimidin-4(1H)-one]
7.87	8.85			Cc1ccnc2nc(N)n(Cc3nc([C@@H]4CO[C@@H](c5ccc(F)cc5)C4)no3)c(=O)c12 [Example 133, 2-amino-3-((3-((3R,5R)-5-(4-fluorophenyl)tetra-hydrofuran-3-yl)-1,2,4-oxadiazol-5-yl)methyl)-5-methylpyrido[2,3-d] pyrimidin-4(3H)-one]
		7.82		O=c1c2c(Cl)ccnc2ncn1Cc1nc([C@@H]2CO[C@@H](c3ccc(F)cc3)C2)no1 (racemic) [Example 95, 5-chloro-3-[[3-[rac-(3R,5R)-5-(4-fluorophenyl)tetrahydrofuran-3-yl]-1,2,4-oxadiazol-5-yl]methyl] pyrido[2,3-d]pyrimidin-4-one]
7.01	7.17			Cn1cnc2ncn(Cc3nc([C@@H]4CO[C@@H](c5ccc(OC(F)(F)F)cc5)C4)no3)c(=O)c21 [Example 21, 7-methyl-1-((3-((3R,5R)-5-(4-(trifluoromethoxy)phenyl)tetrahydro-furan-3-yl)-1,2,4-oxadiazol-5-yl)methyl)-1,7-dihydro-6H-purin-6-one]
8.33	8.68			Cn1nnc2ccn(Cc3nc([C@@H]4CO[C@@H](c5ccc(Cl)cc5)C4)no3)c(=O)c21 [Example 61, 5-((3-((3R,5R)-5-(4-chlorophenyl)tetrahydro-furan-3-yl)-1,2,4-oxadiazol-5-yl)methyl)-3-methyl-3,5-dihydro-4H-[1,2,3]triazolo[4,5-c]pyridin-4-one]
7.09	7.40			Cc1cnn2ncn(Cc3nc([C@@H]4CO[C@@H](c5ccc6ncsc6c5)C4)no3)c(=O)c12 [Example 142, 3-((3-((3R,5R)-5-(benzo[d]thiazol-6-yl)tetrahydrofuran-3-yl)-1,2,4-oxadiazol-5-yl)methyl)-5-methylpyrazolo[5,1-f] [1,2,4]triazin-4(3H)-one]
8.08	8.64			Cc1cnn2ncn(Cc3nc([C@@H]4CO[C@@H](c5ccc6cnn(C)c6c5)C4)no3)c(=O)c12 [Example 138, 5-methyl-3-((3-((3R,5R)-5-(1-methyl-1H-indazol-6-yl)tetrahydrofuran-3-yl)-1,2,4-oxadiazol-5-yl)methyl)pyrazolo[5,1-f][1,2,4]triazin-4(3H)-one]
		7.35		Cc1nc(C)n2ncn(Cc3nc([C@@H]4CO[C@@H](c5ccc(Cl)cc5)C4)no3)c(=O)c12 (racemic) [Example 97, 5,7-dimethyl-3-[[3-[rac-(3R,5R)-5-(4-chlorophenyl)tetrahydro-furan-3-yl]-1,2,4-oxadiazol-5-yl]methyl] imidazo[5,1-f][1,2,4] triazin-4-one]
7.02	7.33			O=C1CCc2c(ncn(Cc3nc([C@@H]4CO[C@@H](c5ccc(Cl)cc5)C4)no3)c2=O)N1 [Example 118, 3-((3-((3R,5R)-5-(4-chlorophenyl)tetrahydro-furan-3-yl)-1,2,4-oxadiazol-5-yl)methyl)-5,8-dihydropyrido[2,3-d] pyrimidine-4,7(3H,6H)-dione]
		8.64		Nc1nc2ncsc2c(=O)n1Cc1nc([C@@H]2CO[C@@H](c3ccc(F)cc3)C2)no1 (racemic) [Example 154, 5-amino-6-[[3-[rac-(3R,5R)-5-(4-fluorophenyl)tetrahydro-furan-3-yl]-1,2,4-oxadiazol-5-yl]methyl]thiazolo[4,5-d]pyrimidin-7-one]
